Data published in US7091199B1, “Thienoisoxazole phenoxy unsubstituted ethyl and propyl derivatives useful as d4 antagonists” (Aventis Pharmaceuticals Inc., priority 1999, dated 2006).
Counter-ions that a name gives are not always drawn.

Target: T1, human D4 receptor (D4.2 sub-type) (Homo sapiens, UniProt P21917, DEL271-302)
T1 sequence (P21917 with tags, fused parts or gaps DEL271-302): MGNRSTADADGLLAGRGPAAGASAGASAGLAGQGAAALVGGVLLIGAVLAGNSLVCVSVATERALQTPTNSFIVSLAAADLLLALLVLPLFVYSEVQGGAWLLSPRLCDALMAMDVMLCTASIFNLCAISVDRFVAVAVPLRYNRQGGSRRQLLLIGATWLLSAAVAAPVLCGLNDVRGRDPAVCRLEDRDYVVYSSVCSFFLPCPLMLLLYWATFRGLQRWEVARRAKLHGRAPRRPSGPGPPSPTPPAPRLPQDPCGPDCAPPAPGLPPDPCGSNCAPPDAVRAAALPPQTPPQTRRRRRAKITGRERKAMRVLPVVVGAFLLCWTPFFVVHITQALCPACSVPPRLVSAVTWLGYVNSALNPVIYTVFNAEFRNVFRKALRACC
Experiment: D4 receptor binding assay (3H-spiperone displacement)
Conditions: 3H-spiperone 0.25 nM, HEK cell membranes, human D4.2; read-out: D4 RBA Ki
Description: D4 receptor-binding affinities of the compounds were evaluated according to their ability to reduce binding of ^3H-spiperone as compared to the reference compound clozapine. The potency of the test compound to reduce ^3H-spiperone binding directly correlated to its binding affinity for the receptor.
[…] (human embryonic kidney) cells stably transfected with human D4 receptor (D4.2 sub-type) were grown in NUNC cell factories for 5 days (75% confluency) without a media change and removed with versene (approximately 19 mg of cells per cell factory tray). The cells were then centrifuged in a Sorval centrifuge for 10 min, 5000 rpm (GS3 rotor) and the pellets quickly frozen in liquid nitrogen and stored at −80° C. until used in binding assay. When used in the assay, cells were thawed on ice for 20 min and then 10 mL of incubation buffer (50 mM Tris, 1 mM EDTA, 4 mM MgCl2, 5 mM KCl, 1.5 mM CaCl2, 120 mM NaCl, pH 7.4) was added. The cells were then vortexed to resuspend pellet and homogenized with a Kinematica, CH-6010 Kriens-LU, homogenizer for 15 seconds at setting 7. Concentration of receptor protein was determined using the Pierce BCA assay.
The incubation was started by the addition of 100 μl (50 μg protein) membrane homogenate to a solution of 300 μl incubation buffer and 100 μl (0.25 nM final conc.) ^3H-spiperone (90 Ci/mmol, Amersham, diluted in borosilicate glass vial) in 96-well polypropylene plates (1 mL per well). The plates were vortexed and incubated at room temperature for 90 minutes. The binding reaction was stopped by filtering using a Packard Harvester. The samples were filtered under vacuum over glass fibre filter plates (Whatman GF/B) presoaked for 2 hours in 0.3% polyethylenimine (PEI) in 50 mM Tris buffer (pH 7.4). The filters were then washed 6 times with 7 mL ice cold 50 mM Tris buffer (pH 7.4). The filter plates were dried overnight and 35 μl of Microscint-O (Packard) was added. The plates were sealed and counted in the Packard Top Count (3 minutes per well).
The incubation was started by the addition of 100 μl (50 μg protein) membrane homogenate to a solution of 200 μl incubation buffer, 100 μl ^3H-spiperone (90 Ci/mmol, Amersham, diluted in borosilicate glass vial to 0.25 nM final conc.) and 100 μl (30 μM final conc.) of fresh dopamine (Research Biochemicals Inc., light protected and dissolved in incubation buffer) in 96-well polypropylene plates (1 mL per well). The plates were vortexed and incubated at room temperature for 90 minutes at which time the binding reaction was stopped by filtering. The filters were washed and counted using the same procedure as in the total binding assay described above to give the non-specific binding value (NSB).
The incubation was started by the addition, in 96-well polypropylene plates (1 mL per well), of 100 μl (50 μg protein) membrane homogenate to a solution of 200 μl incubation buffer, 100 μl (0.25 nM final conc.) ^3H-spiperone (90 Ci/mmol, Amersham, diluted in borosilicate glass vial) and 100 μl of test compound that was prepared from 1 mM stock dissolved in DMSO and stored at −20° C. in polypropylene cryogenic storage vials until dilution in incubation buffer in 96-well polypropylene plates. The plates were vortexed and incubated at room temperature for 90 minutes at which time the binding reaction was stopped by filtering. The filters were washed and counted using the same procedure as in the total binding assay described above to give the displacement binding value (BD).
The test compounds were initially assayed at 1 and 0.1 μM and then at a range of concentrations chosen such that the middle dose would cause about 50% inhibition of ^3H-spiperone binding. Specific binding in the absence of test compound (B0) was the difference of total binding (BT) minus non-specific binding (NSB) and similarly specific binding (in the presence of test compound) (B) was the difference of displacement binding (BD) minus non-specific binding (NSB). […]

Row | SMILES | Ki [nM]
1 | c1cncc(CNCCCOc2cccc(-c3noc4ccsc34)c2)c1 [Compound 8, pyridin-3-ylmethyl-[3-(3-thieno[2,3-d]isoxazol-3-yl-phenoxy)-propyl]-amine] | 76
2 | COc1ccccc1CNCCOc1cccc(-c2noc3ccsc23)c1 [Compound 21, (2-methoxy-benzyl)-[2-(3-thieno[2,3-d]isoxazol-3-yl-phenoxy)-ethyl]-amine] | 14.2
3 | c1cc(OCCCNCc2cccs2)cc(-c2noc3ccsc23)c1 [Compound 6, [3-(3-thieno[2,3-d]isoxazol-3-yl-phenoxy)-propyl]-thiophen-2-ylmethylamine] | 27
4 | Cc1ccc(CNCCCOc2cccc(-c3noc4ccsc34)c2)cc1 [Compound 39, (4-methyl-benzyl)-[3-(3-thieno[2,3-d]isoxazol-3-yl-phenoxy)-propyl]-amine] | 20
5 | Clc1ccc(CNCCCOc2cccc(-c3noc4ccsc34)c2)cc1 [Compound 4, (4-chloro-benzyl)-[3-(3-thieno[2,3-d]isoxazol-3-yl-phenoxy)-propyl]-amine] | 45
6 | c1ccc(CNCCOc2cccc(-c3noc4ccsc34)c2)cc1 [Compound 16, benzyl-[2-(3-thieno[2,3-d]isoxazol-3-yl-phenoxy)-ethyl]-amine] | 7.6
7 | COc1cccc(CNCCOc2cccc(-c3noc4ccsc34)c2)c1 [Compound 36, (3-methoxy-benzyl)-[2-(3-thieno[2,3-d]isoxazol-3-yl-phenoxy)-ethyl]-amine] | 13
8 | COc1cccc(CNCCCOc2cccc(-c3noc4ccsc34)c2)c1 [Compound 41, (3-methoxy-benzyl)-[3-(3-thieno[2,3-d]isoxazol-3-yl-phenoxy)-propyl]-amine] | 44

Same assay, conditions: @ 1 μM test compound; 3H-spiperone binding; read-out: D4 RBA % Inhibition (@ 1 μM)

Row | SMILES | inhibition at 1 µM [%]
9 | NS(=O)(=O)c1ccc(CNCCCOc2cccc(-c3noc4ccsc34)c2)cc1 [Compound 14, 4-{[3-(3-thieno[2,3-d]isoxazol-3-yl-phenoxy)-propylamino]-methyl}-benzenesulfonamide] | 60
10 | Fc1ccc(CNCCCOc2cccc(-c3noc4ccsc34)c2)c(F)c1 [Compound 55, (2,4-difluoro-benzyl)-[3-(3-thieno[2,3-d]isoxazol-3-yl-phenoxy)-propyl]-amine] | 92
11 | FC(F)(F)c1ccc(CNCCOc2cccc(-c3noc4ccsc34)c2)cc1 [Compound 52, [2-(3-thieno[2,3-d]isoxazol-3-yl-phenoxy)-ethyl]-(4-trifluoromethylbenzyl)-amine] | 96
12 | FC(F)(F)c1ccccc1CNCCOc1cccc(-c2noc3ccsc23)c1 [Compound 51, [2-(3-thieno[2,3-d]isoxazol-3-yl-phenoxy)-ethyl]-(2-trifluoromethylbenzyl)-amine] | 58
13 | CCCC1CCN(CCOc2cccc(-c3noc4ccsc34)c2)CC1 [Compound 60, 3-{3-[2-(4-propyl-piperidin-1-yl)-ethoxy]-phenyl}-thieno[2,3-d]isoxazole] | 82
14 | c1cc(OCCNC2CCc3ccccc32)cc(-c2noc3ccsc23)c1 (stereo not shown) [Compound 38, indan-1-yl-[2-(3-thieno[2,3-d]isoxazol-3-yl-phenoxy)-ethyl)-amine] | 95
15 | FC(F)(F)c1ccccc1CNCCCOc1cccc(-c2noc3ccsc23)c1 [Compound 57, [3-(3-thieno[2,3-d]isoxazol-3-yl-phenoxy)-propyl]-(2-trifluoromethylbenzyl)-amine] | 46
16 | c1cc(OCCCNC2CCc3ccccc32)cc(-c2noc3ccsc23)c1 (stereo not shown) [Compound 43] | 94
17 | c1cc(OCCCN2CCCCC2)cc(-c2noc3ccsc23)c1 [Compound 54, 3-[3-(3-piperidin-1-yl-propoxy)-phenyl]-thieno[2,3-d]isoxazole] | 94
18 | Fc1cccc(F)c1CNCCOc1cccc(-c2noc3ccsc23)c1 [Compound 50, (2,6-difluoro-benzyl)-[2-(3-thieno[2,3-d]isoxazol-3-yl-phenoxy)-ethyl]-amine] | 65
19 | c1cc(OCCCNC23CC4CC(CC(C4)C2)C3)cc(-c2noc3ccsc23)c1 [Compound 53, adamantan-1-yl-[3-(3-thieno[2,3-d]isoxazol-3-yl-phenoxy)-propyl]-amine] | 94
20 | FC(F)(F)c1ccc(CNCCCOc2cccc(-c3noc4ccsc34)c2)cc1 [Compound 58, [3-(3-thieno[2,3-d]isoxazol-3-yl-phenoxy)-propyl]-(4-trifluoromethylbenzyl)-amine] | 77
21 | Clc1ccccc1CNCCOc1cccc(-c2noc3ccsc23)c1 [Compound 35, (2-chloro-benzyl)-[2-(3-thieno[2,3-d]isoxazol-3-yl-phenoxy)-ethyl]-amine] | 88
22 | c1cncc(CNCCOc2cccc(-c3noc4ccsc34)c2)c1 [Compound 25, pyridin-3-ylmethyl-[2-(3-thieno[2,3-d]isoxazol-3-yl-phenoxy)-ethyl]-amine] | 93
23 | c1cc(OCCNCc2cccs2)cc(-c2noc3ccsc23)c1 [Compound 24, [2-(3-thieno[2,3-d]isoxazol-3-yl-phenoxy)-ethyl]-thiophen-2-ylmethyl-amine] | 95
24 | c1cc(OCCN2CCCCCCC2)cc(-c2noc3ccsc23)c1 [Compound 63, 3-[3-(2-azocan-1-yl-ethoxy)-phenyl]-thieno[2,3-d]isoxazole] | 54
25 | c1cc(OCCN2CCCCCC2)cc(-c2noc3ccsc23)c1 [Compound 62, 3-[3-(2-azepan-1-yl-ethoxy)-phenyl]-thieno[2,3-d]isoxazole] | 90
26 | c1cc(OCCN2CCCC2)cc(-c2noc3ccsc23)c1 [Compound 61, 3-[3-(2-pyrrolidin-1-yl-ethoxy)-phenyl]-thieno[2,3-d]isoxazole] | 41
27 | c1cc(OCCN2CCc3ccccc3C2)cc(-c2noc3ccsc23)c1 [Compound 29, 2-[2-(3-thieno[2,3-d]isoxazol-3-yl-phenoxy)-ethyl]-1,2,3,4-tetrahydroisoquinoline] | 60
28 | c1ccc(N2CCN(CCOc3cccc(-c4noc5ccsc45)c3)CC2)cc1 [Compound 28, 3-{3-[2-(4-phenyl-piperazin-1-yl)-ethoxy]-phenyl}-thieno[2,3-d]isoxazole] | 78
29 | Clc1ccc(CNCCOc2cccc(-c3noc4ccsc34)c2)cc1Cl [Compound 22, (3,4-dichloro-benzyl)-[2-(3-thieno[2,3-d]isoxazol-3-yl-phenoxy)-ethyl]-amine] | 99
30 | c1cc(OCCCNC2Cc3ccccc3C2)cc(-c2noc3ccsc23)c1 [Compound 44, indan-2-yl-[3-(3-thieno[2,3-d]isoxazol-3-yl-phenoxy)-propyl]-amine] | 96

Same assay, conditions: read-out: D4 RBA % Inhibition (@ 1 μM)

Row | SMILES | inhibition at 1 µM [%]
31 | c1ccc(C2CCN(CCOc3cccc(-c4noc5ccsc45)c3)CC2)cc1 [Compound 30, 3-{3-[2-(4-phenyl-piperidin-1-yl)-ethoxy]-phenyl}-thieno[2,3-d]isoxazole hydrochloride] | 68
